Assay results taken from patent US7893083B2, “Method of treating genital herpes” (priority 2003, dated 2011).

Assays:
HSV-2 [1] = settings: 235 human patients; topical application to herpes lesions; cited from earlier work
viral rhinitis [2] = system: viral rhinitis
Source text: In each of the tests, an imiquimod salve was used. The formulation was that commonly used to treat warts and sold under the brand name Aldara™. The salve was applied to each naris of the test subject by use of a common cotton swab. Either a 4 mm^3 dab of salve or ½ pack of 5% Aldara™ was placed on the swab head. The swab head was inserted into a naris. The swab was moved around inside the naris to distribute the salve over the mucosal membrane of the naris. Immediately, after application of the Aldara™ to the subject's first naris, a swab was used to apply the Aldara™ to the subject's second naris. Immediately after application to each naris, the salve was massaged into the mucosal membrane of each naris.
A test sample of six patients was treated for viral rhinitis using imiquimod (5% topical cream Aldara™, manufactured by 3M Corporation, St. Paul, Minn.). The patients were diagnosed with viral rhinitis due to initial symptoms such as congested nasal passages (rhinitis), nasal drip or rhinorrhea, and sneezing. Contents from ½ packet of a standard imiquimod formulation such as, for example, Aldara™ were applied with a cotton swab into both nares by massaging gently but thoroughly. Approximately the contents from ½ packet of 5% Aldara™ was applied thoroughly along the inside surface of both nares. Initial application of Aldara™ to all the six patients occurred within 24 hours after the appearance of first symptoms resembling viral rhinitis, in order to maximize the efficiency of imiquimod in stimulating the immune system when the viral load is presumably smaller. The procedure was repeated every 12 hours for up to 48 hours. The imiquimod packets were refrigerated after opening, and the remaining contents were used for subsequent applications.
The patients were monitored for changes in the viral rhinitis symptoms.

[3] = Physical examination of macaques for adverse or cytotoxic effects after nasal Aldara
IFN-a mRNA = IFN-a mRNA in postnasal swabs by quantitative competitive RT-PCR in macaques
TLR7 = target: T1, TLR7 (Homo sapiens, UniProt Q9NYK1); settings: cited from earlier work
T1 sequence (Q9NYK1 27-1049): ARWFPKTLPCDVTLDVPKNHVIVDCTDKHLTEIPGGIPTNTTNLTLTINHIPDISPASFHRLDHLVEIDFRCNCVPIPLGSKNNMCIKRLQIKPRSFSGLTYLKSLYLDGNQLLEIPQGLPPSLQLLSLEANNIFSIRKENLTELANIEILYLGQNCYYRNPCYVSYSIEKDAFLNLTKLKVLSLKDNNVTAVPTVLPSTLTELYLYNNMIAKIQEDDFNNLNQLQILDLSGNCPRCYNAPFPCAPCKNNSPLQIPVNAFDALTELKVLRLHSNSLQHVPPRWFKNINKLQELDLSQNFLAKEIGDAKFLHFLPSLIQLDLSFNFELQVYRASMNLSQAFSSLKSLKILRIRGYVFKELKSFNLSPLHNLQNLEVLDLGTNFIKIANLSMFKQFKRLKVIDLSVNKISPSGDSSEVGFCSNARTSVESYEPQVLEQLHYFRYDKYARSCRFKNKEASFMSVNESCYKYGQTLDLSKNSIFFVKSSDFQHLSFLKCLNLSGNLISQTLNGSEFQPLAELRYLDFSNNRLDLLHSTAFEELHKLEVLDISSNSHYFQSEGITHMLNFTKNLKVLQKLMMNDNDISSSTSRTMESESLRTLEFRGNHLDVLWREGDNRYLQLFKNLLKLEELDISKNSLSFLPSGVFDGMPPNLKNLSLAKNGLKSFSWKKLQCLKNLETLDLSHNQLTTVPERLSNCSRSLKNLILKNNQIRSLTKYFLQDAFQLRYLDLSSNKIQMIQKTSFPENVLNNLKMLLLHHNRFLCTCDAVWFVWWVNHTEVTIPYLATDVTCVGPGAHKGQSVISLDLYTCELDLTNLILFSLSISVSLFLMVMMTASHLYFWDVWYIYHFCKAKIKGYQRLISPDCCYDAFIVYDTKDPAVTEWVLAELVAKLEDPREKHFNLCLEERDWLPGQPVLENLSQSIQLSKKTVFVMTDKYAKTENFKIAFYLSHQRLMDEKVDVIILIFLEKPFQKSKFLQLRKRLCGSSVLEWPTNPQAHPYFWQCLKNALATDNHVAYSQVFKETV

[4] = system: purified plasmacytoid dendritic cells; settings: cited from earlier work
TNF-a = TNF-a ELISA of nasal secretions after nasal application of imiquimod in macaques; format: in vivo, Macaca mulatta
Source text: (§1) The assay was limited to examining nasal secretions following nasal application (both nares) of imiquimod, because it is believed that this is the entry site where an immune response will be first observed. The assay evaluated the appearance of […] IFN-α and TNF-a in Macaca mulatta macaques and compared it with a control group treated with a base cream (without imiquimod) or simply anesthetized for the same time interval as the treated group.
(§2) The significance of the data is two-fold. First, intranasal administration of imiquimod cream (5%) produced enough IFN-a in a short period of time, so the cream can be applied daily in order to have 5-6 h of good efficacy. Thus, for example, one can begin applying the cream prior to encountering a known viral area such as an airplane. However, the cream has known cytotoxic effects (mediated through the cytokine production), especially if applied for weeks, so extended application would not be recommended. In the assay, TNF-a remained high for at least 6 h. In the treated group of macaques, the cream was washed away with warm water after the experiments. […] The cream needs to be applied to induce maximum concentration of IFN-a, but it may be removed when TNF-a continues to be elevated (after 6 h).
(§3) The control group (n=3) and the treated group (n=5) were sedated with glycopyrolate 0.01 mg/kg+acetaminophen 0.2 mg/kg and anesthetized with zolazepam (Telazol) 10 mg/kg intramuscular. […] Physical examination after each sample and at 6 h, 12 h, and 24 h post anesthesia consisted of examining each macaque for fever, erythema, erosion, flaking, and lacrimation.
(§4) IFN-a and TNF-a enzyme-linked immunoabsorbent assays (ELISA). Levels of IFN-a and TNF-a were measured using commercially available multispecies kit (PBL Biomedical Laboratories) (product #41105-1). The range of detection was 10-500 pg/ml (high sensitivity protocol).

HSV-2 [5] = test: Remission interval between genital herpes outbreaks after intranasal Aldara regimens (Example 3); format: in vivo, human; settings: after 2 to 4 regimens
Experimental: The patients were diagnosed with HSV-2 due to typical outbreak symptoms such as lesions. […] Thus, the contents were applied thoroughly along the inside surface of both nares. Initial application of Aldara™ to all the four patients occurred within 12 hours after the appearance of first symptoms resembling an outbreak of genital herpes. The application procedure was repeated every 12 hours up to 48 hours so that a total of four applications was administered to each patient.
Prior to treatment with Aldara™, the four patients were having herpes outbreaks at fairly regular intervals. Patients 1, 2 and 3 were experiencing outbreaks every 2 to 3 months and Patient 4 was having outbreaks once a month. Each of the four patients then began treatment by undergoing the 48 hour Aldara™ regimen detailed above each time he or she experienced an outbreak. After undergoing 2 to 4 regimens, each patient experienced a prolonged period of remission before the next outbreak.

IFN-a = IFN-a ELISA of nasal secretions after nasal application of imiquimod in macaques; format: in vivo, Macaca mulatta
Source text: as §1, §2, §3, §4

viral rhinitis [6] = test: Viral rhinitis test subjects, delayed or once-daily Aldara in each nostril (Example 2); format: in vivo, human; settings: applied more than 2 days after the onset of the cold symptoms
Experimental: The swab head was inserted into a naris.
Infected Test Subject #1 developed a sore throat with tingling in larynx, pharynx and uvula. 12 hours later, Subject 1 also developed congestion of the nose. One day later, the subject's initial symptoms intensified, and the subject further developed systemic symptoms such as malaise and headache. More than twenty four hours after the initial viral rhinitis symptoms appeared, Aldara™ was applied in each nostril with a Q-tip swab.
A 4 mm^3 dab of salve was placed on the swab head. The swab head was inserted into a naris. […] The subject was also treated with 2 teaspoons of standard cough suppressant guaifenesin/dextromethorphan (Wal-Tussin). The next day, malaise and headache were more pronounced and Aldara™ was reapplied with Q-tip to each nostril as described above. Also, 2 teaspoons of guaifenesin/dextromethorphan was administered.
Infected Test Subject #2 developed common cold with rhinorrhea and nose congestion. Aldara™ was applied once to each nostril every day for 3 days.

[7] = nasal secretions, p<0.0001 versus control group

CC(C)Cn1cnc2c(N)nc3ccccc3c21 [imiquimod]
Outbreak recurrence times, imiquimod versus placebo (HSV-2 [1]): no statistically significant difference
Effect of accidental inhalation of imiquimod (viral rhinitis [2]; one patient inhaled imiquimod): severe flu-like symptoms that spontaneously subsided within 24 hours
Aggravation of ulcerative colitis during treatment (viral rhinitis [2]; one patient with ulcerative colitis): did not suffer any further aggravation
Complete disappearance of symptoms (nasal congestion, sore throat, headache; malaise), time of treatment (viral rhinitis [2]; six patients, untreated viral rhinitis about a week or 10 days): ≤ 48 h
Side effects reported by patients (viral rhinitis [2]; throughout the course of treatment): No untoward side effects
Adverse reactions to treatment in macaques ([3]; cream used during short period of time): No adverse reactions
Cytotoxic effects on examination ([3]; examined at 6 h, 12 h, or 24 h, cream washed away after the experiments): No animal had cytotoxic effects when examined at 6 h, 12 h, or 24 h, except one animal, which had an episode of lacrimation for 12 h post treatment
IFN-a level in treated animals, mean (IFN-a mRNA; samples taken 3-5 h after application, p=0.004 versus controls): 2.3 IFN-a/albumin mRNA×10^3
IFN-a level in treated animals, range (IFN-a mRNA; samples taken 3-5 h after application, related to albumin mRNA): 0.84-5.20 mRNA×10^3
Increase of IFN-a messenger RNA levels in nasal secretions compared with untreated macaques (IFN-a mRNA; single nasal application): 2-5 fold
Activity at TLR7 (TLR7): TLR7 agonists
IFN-a induction [4]: induce IFN-a
TNF-a level relative to the controls (TNF-a; 6 h post nasal treatment): 3 times
TNF-a level (TNF-a; 6 h post treatment): remaining high
TNF-a increase over time (ELISA, FIG. 6B) (TNF-a; [7]): 540 ng/mg protein
Time of TNF-a peak (TNF-a; post treatment): 4 h
Post-Treatment Remission Interval (Approximate) (HSV-2 [5]; Patient 1, pre-treatment interval 2-3 months): ~3.5 years
Post-Treatment Remission Interval (Approximate) (HSV-2 [5]; Patient 2, pre-treatment interval 2-3 months): ~6 months
Post-Treatment Remission Interval (Approximate) (HSV-2 [5]; Patient 3, pre-treatment interval 2-3 months): ~10 months
Post-Treatment Remission Interval (Approximate) (HSV-2 [5]; Patient 4, pre-treatment interval 1 month): ~2 months
IFN-a level relative to basal level (IFN-a; 3 h post treatment): 5 times basal level
IFN-a level (IFN-a; 4 h post treatment): near maximal level
IFN-a level (IFN-a; 6 h post treatment): near basal level
IFN-a increase over time (ELISA, FIG. 6A) (IFN-a; [7]): 630 ng/mg protein
Time of rapid induction of IFN-a post treatment (IFN-a; single nasal application): 1 to 5 h
Effectiveness of the treatment with late application (viral rhinitis [6]): decreased markedly
